Measured values as given in ChEMBL document CHEMBL1681726, “Discovery of orally available tetrahydroquinoline-based glucocorticoid receptor agonists” (Bioorg Med Chem Lett, 2011).

Tests used:
Progesterone receptor = target: T1, Progesterone receptor (Homo sapiens, UniProt P06401); test: Binding affinity to PR
T1 sequence (P06401 whole entry): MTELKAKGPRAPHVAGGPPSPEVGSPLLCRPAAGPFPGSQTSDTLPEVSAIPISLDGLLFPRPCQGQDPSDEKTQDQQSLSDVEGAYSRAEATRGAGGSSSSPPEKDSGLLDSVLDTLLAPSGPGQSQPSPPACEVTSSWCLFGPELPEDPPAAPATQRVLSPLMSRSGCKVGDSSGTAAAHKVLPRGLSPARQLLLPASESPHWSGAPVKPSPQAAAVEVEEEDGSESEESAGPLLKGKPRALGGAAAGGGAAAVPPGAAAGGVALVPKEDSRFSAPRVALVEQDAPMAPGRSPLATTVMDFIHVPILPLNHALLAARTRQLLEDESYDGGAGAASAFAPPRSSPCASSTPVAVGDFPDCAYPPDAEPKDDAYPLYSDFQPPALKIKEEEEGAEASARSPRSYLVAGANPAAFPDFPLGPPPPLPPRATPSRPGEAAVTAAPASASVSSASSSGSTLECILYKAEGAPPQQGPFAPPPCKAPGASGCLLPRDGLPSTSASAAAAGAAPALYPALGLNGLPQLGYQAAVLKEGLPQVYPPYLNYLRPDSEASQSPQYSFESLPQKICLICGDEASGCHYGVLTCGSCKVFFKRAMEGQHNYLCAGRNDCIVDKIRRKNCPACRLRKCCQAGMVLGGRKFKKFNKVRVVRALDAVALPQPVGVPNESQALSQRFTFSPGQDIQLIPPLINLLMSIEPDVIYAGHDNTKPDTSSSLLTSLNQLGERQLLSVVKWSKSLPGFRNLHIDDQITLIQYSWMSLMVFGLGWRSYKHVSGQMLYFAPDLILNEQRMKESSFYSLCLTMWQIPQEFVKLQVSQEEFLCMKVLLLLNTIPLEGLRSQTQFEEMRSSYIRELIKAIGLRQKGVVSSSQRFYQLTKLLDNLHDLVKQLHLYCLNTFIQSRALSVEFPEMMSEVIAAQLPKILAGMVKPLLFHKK

[1] = Selectivity ratio of Ki for GR to Ki for MR
[2] = Selectivity ratio of Ki for GR to Ki for AR
[3] = Cmax in Sprague-Dawley rat at 30 mg/kg, po; type: ADME, organism-based; set-up: dose 30 mg/kg, route oral; details: in vivo
Mus musculus = test: Antiinflammatory activity in po dosed mouse assessed as carrageenan-induced hind paw edema measured after 3 hrs post dose; type: functional

- Ki (Progesterone receptor): 2.1 µM
- Ratio Ki [1]: > 500
- Ratio Ki [2]: > 500
- Cmax [3]: 3600 ng/mL
SMILES: C[C@H]1c2c(cc(F)c(-c3cccc4cc[nH]c34)c2F)NC(C)(C)[C@@H]1O (racemic)
- ED50 (Mus musculus): 6.6 mg/kg
